Test results taken from US11473089B2, “Aptamer for ADAMTS5 and use for aptamer for ADAMTS5” (RIBOMIC INC., priority 2017, dated 2022).

T1: ADAMTS5 (Homo sapiens, UniProt Q9UNA0)
T1 construct: purchased R&D systems
T1 sequence (Q9UNA0 262-930): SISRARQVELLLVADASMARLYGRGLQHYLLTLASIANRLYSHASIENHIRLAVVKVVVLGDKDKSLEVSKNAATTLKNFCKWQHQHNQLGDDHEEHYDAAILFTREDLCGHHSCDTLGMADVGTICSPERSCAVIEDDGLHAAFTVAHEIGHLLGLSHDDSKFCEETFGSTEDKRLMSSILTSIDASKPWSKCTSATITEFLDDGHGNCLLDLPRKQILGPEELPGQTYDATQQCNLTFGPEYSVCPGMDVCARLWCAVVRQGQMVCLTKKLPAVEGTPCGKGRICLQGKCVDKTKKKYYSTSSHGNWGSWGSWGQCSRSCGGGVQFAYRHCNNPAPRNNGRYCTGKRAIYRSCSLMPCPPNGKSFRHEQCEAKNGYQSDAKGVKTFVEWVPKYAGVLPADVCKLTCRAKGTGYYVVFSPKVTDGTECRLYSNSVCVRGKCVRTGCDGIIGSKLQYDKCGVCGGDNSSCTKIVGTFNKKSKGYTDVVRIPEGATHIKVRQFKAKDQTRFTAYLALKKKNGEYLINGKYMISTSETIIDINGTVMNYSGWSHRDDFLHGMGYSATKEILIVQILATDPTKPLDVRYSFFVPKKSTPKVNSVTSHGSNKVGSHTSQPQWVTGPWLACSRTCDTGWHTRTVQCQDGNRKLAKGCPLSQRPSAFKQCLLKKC

B1: 2 (nucleic acid)
chain: GGGUACGACCGUCGUACGAUUGGGCCUCCACAGCUGCUCAGCUUGGACUAAACCAAUAAGAGACUAACGCCUAGCGUAC
modifications: 2'-fluoro at CU, RNA at AG, backbone not given here
B2: 1 (nucleic acid)
chain: GGGUACGACCGUCGUACGAUUGGGGCCUCCACAGCUGCUCAGCUUGGACUAAACCAAUAAGAGACUAACGCCUAGCGUAC
modifications: 2'-fluoro at CU, RNA at AG, backbone not given here

These molecules were tested against T1, ADAMTS5 (assay: binding activity to ADAMTS5 by surface plasmon resonance (Biacore T100)). Conditions: Table 1; 0.1 μM ADAMTS5 analyte, aptamer immobilized on SA chip.
Method: The binding activity of aptamers having the nucleotide sequences shown in SEQ ID NOs: 1 and 2 to ADAMTS5 was evaluated by the surface plasmon resonance method. Biacore T100 manufactured by GE Healthcare was used for the measurement. The SA chip was used as the sensor chip, which had streptavidin immobilized thereon. About 800 RU of a 16-nucleotide Poly dT with biotin at the 5′-terminal was bound on the chip. […] ADAMTS5 for analyte was prepared at 0.1 μM, and injected at a flow rate of 30 μL/min for 60 sec. As the running buffer, solution C was used. The solution C is a mixed solution of 300 mM sodium chloride, 5.4 mM potassium chloride, 1.8 mM calcium chloride, 0.8 mM magnesium chloride, 20 mM tris (pH 7.6), and 0.05% Tween20.
SEQ ID NO: 2 has a sequence with one base deletion from the continuous 4 G bases in the consensus sequence, and it was shown from the measurement results of the binding activity that the continuous 4 G bases in the consensus sequence are important for the activity of aptamers. Sensorgram showing the binding of an aptamer having the nucleotide sequence shown in SEQ ID NO: 1 to ADAMTS5 is presented in FIG. 2. In Table 1, “++” indicates those with the proportion of ADAMTS5 binding amount (RU value) to the amount of aptamer immobilized on the SA chip (RU value) of not less than 40%, “+” indicates those with the proportion of not less than 10% and less than 40%, and “−” indicates those with the proportion of less than 10%.
The binding activity and enzyme inhibitory activity of aptamers having nucleotide sequences shown in SEQ ID NOs: 16-25 to ADAMTS5 were measured. The binding activity was evaluated by the surface plasmon resonance method. For the measurement, a method similar to that in Example 1 was used. The enzyme inhibitory activity was measured by a method similar to that in Example 1. […] The negative control nucleic acid refers to the nucleic acid pool used in the first round of the SELEX method. The “++” indicates those with the proportion of ADAMTS5 binding amount (RU value) to the amount of aptamer immobilized on the SA chip (RU value) of not less than 40%, and “+” indicates those with the proportion of less than 40%. […] “n.d.” means not determined.
The binding activity of the nucleic acids shown in SEQ ID NOs: 30-45 to ADAMTS5 was measured. The binding activity was evaluated by the surface plasmon resonance method. In the Table, “++” indicates those with the proportion of ADAMTS5 binding amount (RU value) to the amount of aptamer immobilized on the SA chip (RU value) of not less than 40%, “+” indicates those with the proportion of not less than 10% and less than 40%, and “−” indicates those with the proportion of less than 10%.

Molecule | binding activity by Biacore
B1 | − (proportion of less than 10%)
B2 | ++ (proportion of ADAMTS5 binding amount (RU value) to the amount of aptamer immobilized on the SA chip (RU value) of not less than 40%)

Same assay, conditions: Table 10

Molecule | binding activity
33 (GGGUAUUGGGGCCUCCACAGCCGAGGCUUGGACUAAACCAAUCUCGA; aptamer; 2'-fluoro at CU, RNA at AG, backbone not given here) [compound 33] | ++ (proportion of ADAMTS5 binding amount (RU value) to the amount of aptamer immobilized on the SA chip (RU value) of not less than 40%)
45 (GGGUAUUGGGGCCUCCACAGAAAAGUCUUGGACUAAACCAACUCGA; aptamer; 2'-fluoro at CU, RNA at AG, backbone not given here) [compound 45] | ++ (proportion of ADAMTS5 binding amount (RU value) to the amount of aptamer immobilized on the SA chip (RU value) of not less than 40%)
42 (GGGUAUUGGGGCCUCCACAGAUAAUUCUUGGACUAAACCAACUCGA; aptamer; 2'-fluoro at CU, RNA at AG, backbone not given here) [compound 42] | ++ (proportion of ADAMTS5 binding amount (RU value) to the amount of aptamer immobilized on the SA chip (RU value) of not less than 40%)
30 (GGGUAUUGGGGCCUCCACAAUAGAUAAAUGGACUAAACCAACUCGA; 2'-fluoro at CU, RNA at AG, backbone not given here) [compound 30] | ++ (proportion of ADAMTS5 binding amount (RU value) to the amount of aptamer immobilized on the SA chip (RU value) of not less than 40%)
38 (GGGUAUUGGGGCCUCCACGCUAGAAGGCUGGACUAAACCAACUCGA; aptamer; 2'-fluoro at CU, RNA at AG, backbone not given here) [compound 38] | ++ (proportion of ADAMTS5 binding amount (RU value) to the amount of aptamer immobilized on the SA chip (RU value) of not less than 40%)
35 (GGGUAUUGGGGCCUCCACAGUAAGCACUUGGACUAAACCAGCUCGA; aptamer; 2'-fluoro at CU, RNA at AG, backbone not given here) [compound 35] | ++ (proportion of ADAMTS5 binding amount (RU value) to the amount of aptamer immobilized on the SA chip (RU value) of not less than 40%)
31 (GGGUAUUGGGGCCUCCACAGUUGAAGCUUGGACUAAACCAAUCUCGA; aptamer; 2'-fluoro at CU, RNA at AG, backbone not given here) [compound 31] | ++ (proportion of ADAMTS5 binding amount (RU value) to the amount of aptamer immobilized on the SA chip (RU value) of not less than 40%)
36 (GGGUAUUGGGGCCUCCACAGUUUAAACUUGGACUAAACCAACUCGA; aptamer; 2'-fluoro at CU, RNA at AG, backbone not given here) [compound 36] | ++ (proportion of ADAMTS5 binding amount (RU value) to the amount of aptamer immobilized on the SA chip (RU value) of not less than 40%)
44 (GGGUAUUGGGGCCUCCACAGAACUUUCUUGGACUAAACCAACUCGA; aptamer; 2'-fluoro at CU, RNA at AG, backbone not given here) [compound 44] | ++ (proportion of ADAMTS5 binding amount (RU value) to the amount of aptamer immobilized on the SA chip (RU value) of not less than 40%)
39 (GGGUAUUGGGGCCUCCACGUAACUAAACUGGACUAAACCAACUCGA; aptamer; 2'-fluoro at CU, RNA at AG, backbone not given here) [compound 39] | ++ (proportion of ADAMTS5 binding amount (RU value) to the amount of aptamer immobilized on the SA chip (RU value) of not less than 40%)
34 (GGGUAUUGGGGCCUCCACAGAAAAAACUUGGACUAAACCAACUCGA; aptamer; 2'-fluoro at CU, RNA at AG, backbone not given here) [compound 34] | ++ (proportion of ADAMTS5 binding amount (RU value) to the amount of aptamer immobilized on the SA chip (RU value) of not less than 40%)
37 (GGGUAUUGGGGCCUCCACAGUAAAUUCUUGGACUAAACCAACUCGA; aptamer; 2'-fluoro at CU, RNA at AG, backbone not given here) [compound 37] | ++ (proportion of ADAMTS5 binding amount (RU value) to the amount of aptamer immobilized on the SA chip (RU value) of not less than 40%)
40 (GGGUAUUGGGGCCUCCACGCAAUGGUGCUGGACUAAACCAACUCGA; aptamer; 2'-fluoro at CU, RNA at AG, backbone not given here) [compound 40] | ++ (proportion of ADAMTS5 binding amount (RU value) to the amount of aptamer immobilized on the SA chip (RU value) of not less than 40%)

Same assay, conditions: surface plasmon resonance

Molecule | binding to ADAMTS5 (in words)
B1 | did not bind to ADAMTS5
B2 | binds to ADAMTS5

The molecules below were run against T1, ADAMTS5 (assay: ADAMTS5 enzyme inhibition, aggrecan G1-IGD-G2 cleavage, SDS-PAGE detection (evaluation method 1)). Conditions: Table 2; mean of four measurements; 5 nM ADAMTS5, 50 μg/mL substrate; read-out: IC50, inhibitory activity against ADAMTS5.
Format: biochemical
Method: Whether an aptamer having the nucleotide sequence shown in SEQ ID NO: 1 inhibits the enzyme activity of ADAMTS5 was evaluated by the following method. As a substrate of ADAMTS5, the G1-IGD-G2 domain of aggrecan (manufactured by R&D systems) was used. ADAMTS5 specifically cleaves in between the 392nd glutamic acid and the 393rd alanine in the G1-IGD-G2 domain and produces two fragments. These fragments have faster electrophoretic mobility than uncleaved G1-IGD-G2. Thus, the enzyme activity of ADAMTS5 can be measured by quantifying the band intensity of G1-IGD-G2 by SDS-PAGE electrophoresis. The assay was performed in a solution A buffer with a reaction mixture volume of 10 μL. First, a mixture (10 μL) of a nucleic acid and ADAMTS5 was prepared and incubated at 25° C. for 15 min. To a substrate solution (5 μL) diluted with solution A was added a mixture (5 μL) of the nucleic acid and ADAMTS5 to start the enzyme reaction. The final concentration of ADAMTS5 in the reaction solution was 5 nM, and the final substrate concentration was 50 μg/mL. The reaction solution was incubated at 37° C. for 2 hr, 2 μL of solution D was added, and the mixture was heated at 95° C. for 2 min to stop the enzyme reaction of ADAMTS5. Solution D contains 0.25 M tris (pH 6.8), 10% SDS, 50% glycerol, 0.25% bromo phenolblue, and 20% 2-mercaptoethanol. The heat-treated reaction solution was electrophoresed by 7.5% SDS-PAGE and stained with SYPRO Orange (manufactured by Sigma-Aldrich). The staining was performed according to the manual of Sigma-Aldrich and detected using STORM840 manufactured by GE Healthcare. For analytical curves, uncleaved substrates 1000 ng, 400 ng, 160 ng, 64 ng, 25.6 ng, 10.24 ng, and 4.1 ng were electrophoresed, and staining and detection were performed in the same manner. The amount of uncleaved substrate in each reaction solution was quantified from the band intensity and the standard curve. The substrate cleavage efficiency of ADAMTS5 under these reaction conditions was 80-100%. The inhibition rate of the test substance was calculated using the following equation. inhibition rate (%)=(Sapt−SE)/(S0−SE)×100 wherein Sapt is the amount of an uncleaved substrate with the addition of a test substance, SE is the residual amount of an uncleaved substrate with the addition of ADAMTS5, and S0 is the residual amount of an uncleaved substrate without the addition of ADAMTS5.
The concentration of an inhibitor necessary for inhibiting 50% of the enzyme activity (IC50) was determined. IC50 is a mean of four measurements.

Molecule | IC50 [nM]
B2 | 16.8 ± 2.8
